Assay results from patent publication US4145554A, “3-Nitropyrazole derivatives” (Eli Lilly and Company, priority 1977, dated 1979).
Converted amounts (≈) assume the structure as drawn. Read-outs that look alike come from different tables or passages of the source.

Experiments:
Escherichia coli = test: in vitro tube dilution test (MIC); assay type: cell-based
Text: (§1) Our compound, 1-(2-hydroxyethyl)-3-nitro-4-pyrazolecarboxamide, has been extensively tested in vitro to determine the range of microorganisms against which it is active. The table of data below reports the minimum inhibitory concentration (MIC) at which the compound is effective in controlling a variety of microorganisms in a standard tube dilution test system. The MIC is reported as micrograms of compound per milliliter.
(§2) Other compounds of our invention have also been tested in the tube dilution test and shown to have in vitro activity against a number of microorganisms. The table below reports tests of a number of exemplary compounds against exemplary microorganisms. The compounds are identified by their numbers in the listing above. The data are reported as the MIC in micrograms per milliliter against the named exemplary microorganisms.

Mycoplasma gallisepticum = test: in vitro tube dilution test (MIC); assay type: cell-based; details: Mycoplasmoides gallisepticum
Text: as §1, §2

Pasteurella multocida = test: in vitro tube dilution test (MIC); assay type: cell-based
Text: as §1
(§3) The other preferred compounds of our invention have also been thoroughly tested in the in vitro tube dilution test.
as §2

Salmonella dublin = test: in vitro tube dilution test (MIC); assay type: cell-based; details: Salmonella enterica
Text: as §3, §2

[1] = system: Staphylococcus aureus sp. 1130; test: in vitro tube dilution test (MIC); assay type: cell-based
Text: as §3, §2

Vibrio coli 3811 = test: in vitro tube dilution test (MIC); assay type: cell-based; details: Campylobacter coli
Text: as §3, §2

Streptococcus sp. 80 = test: in vitro tube dilution test (MIC); assay type: cell-based
Text: as §2

Salmonella typhimurium = test: Salmonellosis in chickens, single injection to day-old chicks; assay type: in vivo; details: Salmonella enterica, TYPHIMURIUM, 168 h; single injection of 60 mg./kg.; seven days; read-out: Survival (converted)
Procedure: A number of our 3-nitropyrazoles have been tested against an induced infection of Salmonella typhimurium in day-old chicks. The test was conducted by administering a single injection of 60 mg./kg. of the compounds to each of five chicks. The following day, the chicks were challenged by the subcutaneous injection of a dispersion of S. typhimurium organisms sufficient to kill most or all of the untreated control chicks.
Some of the compounds were tested more than once, in which instances the data are reported as the total survivors from the multiple treatment groups. Untreated, challenged control groups of chicks were tested together with each batch of groups of chicks to which test compounds were administered. Since the mortality of the untreated control chicks varied somewhat from one group of tests to another, results of the untreated control groups are reported below with each test.

[2] = Mycoplasma gallisepticum, tube dilution, read-out: MIC
[3] = Salmonella dublin, tube dilution, read-out: MIC
[4] = Staphylococcus aureus sp. 1130, tube dilution, read-out: MIC
[5] = Vibrio coli 3811, tube dilution, read-out: MIC
[6] = Streptococcus sp. 80, tube dilution, read-out: MIC

SMILES	MIC (Escherichia coli; tube dilution, read-out: MIC) [µg/mL]	MIC (Mycoplasma gallisepticum; [2]) [µg/mL]	MIC (Pasteurella multocida; tube dilution, read-out: MIC) [µg/mL]	MIC (Salmonella dublin; [3]) [µg/mL]	MIC [1, 4] [µg/mL]	MIC (Vibrio coli 3811; [5]) [µg/mL]	MIC (Streptococcus sp. 80; [6]) [µg/mL]	MIC (Escherichia coli) [µg/mL]	MIC (Mycoplasma gallisepticum) [µg/mL]	MIC (Pasteurella multocida) [µg/mL]	MIC (Salmonella dublin) [µg/mL]	MIC ([1]; Staphylococcus aureus, SP.1130) [µg/mL]	MIC (Vibrio coli 3811; 3811) [µg/mL]	MIC (Streptococcus sp. 80; Streptococcus, SP.80) [µg/mL]	responders at 60 mg/kg (Salmonella typhimurium) [%]
C#CCn1cc(C#N)c([N+](=O)[O-])n1 [Compound 4, 1-propargyl-3-nitro-4-pyrazolecarbonitrile]	50 (≈ 284 µM)	50 (≈ 284 µM)	12.5 (≈ 71 µM)	50 (≈ 284 µM)	> 50	6.25 (≈ 35.5 µM)	> 50	–	–	–	–	–	–	–	–
NC(=O)c1cn(-c2ccc([N+](=O)[O-])cc2)nc1[N+](=O)[O-] [Compound 5, 3-nitro-1-(4-nitrophenyl)-4-pyrazolecarboxamide]	–	–	–	–	–	–	–	> 50	25 (≈ 90.2 µM)	3.12 (≈ 11.3 µM)	> 50	3.12 (≈ 11.3 µM)	6.25 (≈ 22.5 µM)	> 50	–
NC(=O)c1cn(CCN2C(=O)c3ccccc3C2=O)nc1[N+](=O)[O-] [Compound 10, 1-(2-phthalimidoethyl)-3-nitro-4-pyrazolecarboxamide]	50 (≈ 152 µM)	50 (≈ 152 µM)	25 (≈ 75.9 µM)	> 50	6.25 (≈ 19 µM)	50 (≈ 152 µM)	6.25 (≈ 19 µM)	–	–	–	–	–	–	–	–
Cn1cc(C#N)c([N+](=O)[O-])n1 [Compound 30, 1-methyl-3-nitro-4-pyrazolecarbonitrile]	100 (≈ 657 µM)	50 (≈ 329 µM)	–	100 (≈ 657 µM)	100 (≈ 657 µM)	100 (≈ 657 µM)	100 (≈ 657 µM)	–	–	–	–	–	–	–	–
N#Cc1cn(CC2CO2)nc1[N+](=O)[O-] (stereo not drawn) [Compound 31, 1-(2,3-epoxypropyl)-3-nitro-4-pyrazolecarbonitrile]	50 (≈ 258 µM)	50 (≈ 258 µM)	–	50 (≈ 258 µM)	50 (≈ 258 µM)	12.5 (≈ 64.4 µM)	50 (≈ 258 µM)	–	–	–	–	–	–	–	–
N#Cc1cn(CCCl)nc1[N+](=O)[O-] [Compound 33, 1-(2-chloroethyl)-3-nitro-4-pyrazolecarbonitrile]	100 (≈ 499 µM)	> 50	–	100 (≈ 499 µM)	100 (≈ 499 µM)	12.5 (≈ 62.3 µM)	100 (≈ 499 µM)	–	–	–	–	–	–	–	80
CCCn1cc(C(N)=O)c([N+](=O)[O-])n1 [Compound 38, 3-nitro-1-propyl-4-pyrazolecarboxamide]	–	–	–	–	–	–	–	–	–	–	–	–	–	–	80
CCCCCCCCCn1cc(C(N)=O)c([N+](=O)[O-])n1 [Compound 48, 3-nitro-1-nonyl-4-pyrazolecarboxamide]	> 50	50 (≈ 177 µM)	0.39 (≈ 1.38 µM)	> 50	25 (≈ 88.5 µM)	50 (≈ 177 µM)	> 50	–	–	–	–	–	–	–	–
N#Cc1cn(CCO)nc1[N+](=O)[O-] [Compound 55, 1-(2-hydroxyethyl)-3-nitro-4-pyrazolecarbonitrile]	12.5 (≈ 68.6 µM)	–	–	6.25 (≈ 34.3 µM)	6.25 (≈ 34.3 µM)	–	50 (≈ 275 µM)	–	–	–	–	–	–	–	80
NC(=O)c1c[nH]nc1[N+](=O)[O-] [Compound 60, 3(5)-nitro-4-pyrazolecarboxamide]	> 50	50 (≈ 320 µM)	25 (≈ 160 µM)	> 50	> 50	> 50	> 50	–	–	–	–	–	–	–	–
CCOC(Cn1cc(C#N)c([N+](=O)[O-])n1)OCC [Compound 67, 1-(2,2-diethoxyethyl)-3-nitro-4-pyrazolecarbonitrile]	50 (≈ 197 µM)	50 (≈ 197 µM)	25 (≈ 98.3 µM)	50 (≈ 197 µM)	50 (≈ 197 µM)	50 (≈ 197 µM)	50 (≈ 197 µM)	–	–	–	–	–	–	–	–
N#Cc1cn(-c2ncc([N+](=O)[O-])s2)nc1[N+](=O)[O-] [Compound 68, 3-nitro-1-(5-nitro-2-thiazolyl)-4-pyrazolecarbonitrile]	–	–	–	–	–	–	–	50 (≈ 188 µM)	25 (≈ 93.9 µM)	12.5 (≈ 47 µM)	50 (≈ 188 µM)	25 (≈ 93.9 µM)	12.5 (≈ 47 µM)	50 (≈ 188 µM)	–
CC(O)Cn1cc(C(N)=O)c([N+](=O)[O-])n1 (stereo not drawn) [Compound 69, 1-(2-hydroxypropyl)-3-nitro-4-pyrazolecarboxamide]	–	–	–	–	–	–	–	–	–	–	–	–	–	–	100
N#Cc1cn(Cc2ccccc2)nc1[N+](=O)[O-] [Compound 70, 1-benzyl-3-nitro-4-pyrazolecarbonitrile]	100 (≈ 438 µM)	> 50	–	100 (≈ 438 µM)	100 (≈ 438 µM)	12.5 (≈ 54.8 µM)	100 (≈ 438 µM)	–	–	–	–	–	–	–	–
